From US8110565B2, “Enhanced drug delivery in transdermal systems” (Noven Pharmaceuticals, Inc., priority 2001, dated 2012)
Blank lines part the entries; values can stand above or below the molecule they belong to.

Assays:
[1] = Flux of ramipril, its ester prodrugs and their combinations from carrier formulations (FIGS. 8, 9); assay type: in vitro ADME
From the text: (§1) Prodrug effects on flux were also studied using an ace inhibitor drug, ramipril. Flux rates of two corresponding prodrugs—ramipril methyl ester and ramipril ethyl ester—were compared prior to combining with the parent drug. […] In either event, the use of an ester prodrug in place of the parent drug can achieve, at the very least, over a 10 fold increase in flux (see ramipril flux (▴) in FIG. 8—only 15% ramipril could be solubilized without forming crystals—versus ramipril ethyl ester flux without enhancers (Δ) in FIG. 9). Use of non-functional or hydroxy functional adhesives are also preferred. However, when both ramipril and a corresponding prodrug are combined in the formulations containing enhancers, an even higher flux can be obtained.

[2] = Amount of ramipril solubilized in the carrier formulation without forming crystals; assay type: physicochemical
From the text: as §1, with “preferred.” for “preferred. However, when both ramipril and a corresponding prodrug are combined in the formulations containing enhancers, an even higher flux can be obtained.”

- flux compared with the ethyl ester derivative [1]: fluxed higher
- flux higher than the ethyl ester prodrug ([1]; without permeation enhancers, 20% drug, 20% polyacrylate adhesive, 60% polysiloxane adhesive, FIG. 9): 73%
SMILES: CCOC(=O)[C@H](CCc1ccccc1)N[C@@H](C)C(=O)N1[C@H](C(=O)OC)C[C@@H]2CCC[C@@H]21 [ramipril methyl ester]

- increase in flux over the parent drug ramipril ([1]; ester without enhancers (FIG. 9) versus 15% ramipril (FIG. 8)): > 10 fold
SMILES: CCOC(=O)C(CCc1ccccc1)NC(C)C(=O)N1C(C(=O)OCC)CC2CCCC21 (stereo not shown) [ramipril ethyl ester]

- ramipril that could be solubilized without forming crystals [2]: 15%
SMILES: CCOC(=O)[C@H](CCc1ccccc1)N[C@@H](C)C(=O)N1[C@H](C(=O)O)C[C@@H]2CCC[C@@H]21 [ramipril]
